Laboratory results as given in patent EP4610262A1, “MACROCYCLIC COMPOUND AS CDK9 INHIBITOR AND USE THEREOF” (Artivila Biopharma, priority 2022, dated 2024).
Like-named read-outs stand apart in the source and are kept apart here.

Tests used:
CDK9 = CDK9 (Homo sapiens, UniProt P50750); experiment: Inhibition of CDK9 kinase activity (caliper mobility shift assay); format: biochemical; conditions: for inhibition at 0.01 µM: compound at 10 nM
Protocol: (§1) Compounds were tested at a concentration of 10 nM with detection in duplicate wells, or tested at 10 concentrations starting from 10 µM with three-fold serial dilutions, with detection in duplicate wells.
(§2) The inhibitory effect of the compounds on the activity of CDK9 protein kinase was detected by the caliper mobility shift assay method. 250 nL of the compound at 100-fold final concentration was transferred to a target 384-well-plate with a dispenser Echo 550. A kinase solution at 2.5-fold final concentration was prepared using 1× kinase buffer. 10 µL of the kinase solution at 2.5-fold final concentration was added to the compound well and positive control well respectively. 10 µL of 1× kinase buffer was added to the negative control well. The 384-well plate was centrifuged at 1000 rpm for 30 seconds and incubated at room temperature for 10 minutes. A mixed solution of ATP and kinase substrate at 5/3-fold final concentration was prepared with 1× kinase buffer, and to the 384-well plate was added with 15 µL per well of the mixed solution of ATP and substrate at 5/3-fold final concentration to start the reaction. The plate was centrifuged at 1000 rpm for 30 seconds, shaken to mix evenly, and incubated at room temperature for a corresponding time. 30 µL of detection stopping solution was added to terminate the kinase reaction. The 384-well plate was centrifuged at 1000 rpm for 30 seconds and shaken to mix evenly. The conversion rate was read with Caliper EZ Reader. The percent conversion inhibition rate = (% positive control conversion rate mean - % sample conversion rate / (% positive control conversion rate mean - % negative control conversion rate mean). Among them: negative control wells represent the conversion rate readings of kinase buffer background wells; positive control wells represent the conversion rate readings of wells without inhibition by compound. With the log value of concentration as the x-axis and the percentage inhibition rate as the y-axis, a dose-response curve was fitted using the log (inhibitor) vs. response -Variable slope of the analysis software GraphPad Prism 5 to obtain the IC50 value of each compound on enzyme activity. Calculation formula: y=Bottom + (Top-Bottom)/(1+10^((LogIC50-x) × hillslope)), x: logarithm of inhibitor concentration; y: % inhibition rate.

JAK1 = JAK1 (Homo sapiens, UniProt P23458); experiment: Kinase selectivity, inhibition rate at 10 nM (caliper mobility shift assay); format: biochemical; conditions: compound at 10 nM
Protocol: as §1, §2
(§3) According to the description of the above experiment on kinase activity inhibition, some compounds were tested for their selective inhibition rate against the kinases of CDK7, CDK9, JAK1, JAK2, JAK3, ITK, RET, TYK2, and LRRK2 at 10 nM. The results are shown in Table 3 below: (Inhibition rate range: A>50%; B: 25-49%; C: <25%): […]

ITK = ITK (Homo sapiens, UniProt Q08881); experiment: as above; format: biochemical; conditions: compound at 10 nM
Protocol: as §1, §2, §3

TYK2 = TYK2 (Homo sapiens, UniProt P29597); experiment: as above; format: biochemical; conditions: compound at 10 nM
Protocol: as §1, §2, §3

LRRK2 = LRRK2 (Homo sapiens, UniProt Q5S007); experiment: as above; format: biochemical; conditions: compound at 10 nM
Protocol: as §1, §2, §3

JAK2 = JAK2 (Homo sapiens, UniProt O60674); experiment: as above; format: biochemical; conditions: compound at 10 nM
Protocol: as §1, §2, §3

RET = RET (Homo sapiens, UniProt P07949); experiment: as above; format: biochemical; conditions: compound at 10 nM
Protocol: as §1, §2, §3

JAK3 = JAK3 (Homo sapiens, UniProt P52333); experiment: as above; format: biochemical; conditions: compound at 10 nM
Protocol: as §1, §2, §3

CDK7 = CDK7 (Homo sapiens, UniProt P50613); experiment: as above; format: biochemical; conditions: compound at 10 nM
Protocol: as §1, §2, §3

A375 = experiment: CDK9 cell activity assay, cell growth inhibition (CellTiter-Glo, 72 hours); format: cell-based; conditions: Homo sapiens, A-375
Protocol: (§4) In the CDK9 cell activity assay, the cell line MV-4-11 was cultured in IMDM culture medium containing 10% fetal bovine serum (containing 100 U/mL penicillin and 0.1 g/L streptomycin); the cell line HCC1187 was cultured in RPMI-1640 culture medium containing 10% fetal bovine serum (containing 100 U/mL penicillin and 0.1 g/L streptomycin); the cell line Mia Paca-2 was cultured in DMEM containing 10% fetal bovine serum and 2.5% horse serum (containing 100 U/mL penicillin and 0.1 g/L streptomycin); and the cell line A375 was cultured in RPMI-1640 culture medium containing 10% fetal bovine serum (containing 100 U/mL penicillin and 0.1 g/L streptomycin). All cells were cultured in an incubator with saturated humidity at 37°C with 5% CO2.
(§5) When MV-4-11 cells, HCC1187 cells, Mia Paca-2 cells, and A375 cells grew to 80%-90% confluence, they were digested with trypsin, resuspended, counted, and diluted to a certain cell density with complete medium. 100 µL of the cells was plated into each well of a 96-well plate, and the complete medium was used as a background control. The cells were cultured overnight in an incubator with saturated humidity at 37°C with 5% CO2. The compounds were diluted with DMSO to a final concentration of 200×. 3 µL of the stock solution of the above compounds in DMSO was added to 197 µL of complete medium, and 50 µL of the compound diluted in the medium was added to the cells of each well. The cells were cultured in an incubator with saturated humidity at 37°C with 5% CO2 for 72 hours. After 72 hours, the culture plates were placed at room temperature for equilibrium. 40 µL of CellTiter-Glo® reagent was added to each well. The plate was mixed evenly on a shaker for 2 minutes to lyse the cells then incubated at room temperature for 60 minutes to stabilize the chemiluminescent signal, and the chemiluminescence was read using a PE EnVision microplate reader. The inhibition rate on cell growth was calculated as % Inh = (DMSO well - compound treatment well) / (DMSO well - background well) x 100, and fitting was performed using GraphPad Prism 5 to obtain the IC50 values against cell growth.

Mia-Paca-2 = experiment: as above; format: cell-based; conditions: Homo sapiens
Protocol: as §4, §5

MV-4-11 = experiment: as above; format: cell-based; conditions: Homo sapiens, MV4-11
Protocol: as §4, §5

HCC1187 = experiment: as above; format: cell-based; conditions: Homo sapiens
Protocol: as §4, §5

CDK9, sequence (P50750 whole entry): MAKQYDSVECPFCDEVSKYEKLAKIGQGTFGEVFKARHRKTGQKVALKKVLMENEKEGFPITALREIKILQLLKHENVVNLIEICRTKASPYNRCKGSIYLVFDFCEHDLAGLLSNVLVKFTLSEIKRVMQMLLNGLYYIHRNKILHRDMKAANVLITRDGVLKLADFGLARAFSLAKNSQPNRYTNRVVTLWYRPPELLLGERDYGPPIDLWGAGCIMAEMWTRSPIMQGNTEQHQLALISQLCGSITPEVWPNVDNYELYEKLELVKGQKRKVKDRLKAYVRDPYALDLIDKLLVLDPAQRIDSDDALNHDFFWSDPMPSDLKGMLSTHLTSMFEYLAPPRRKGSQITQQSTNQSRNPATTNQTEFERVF
CDK9, sequence (O60563 whole entry partner): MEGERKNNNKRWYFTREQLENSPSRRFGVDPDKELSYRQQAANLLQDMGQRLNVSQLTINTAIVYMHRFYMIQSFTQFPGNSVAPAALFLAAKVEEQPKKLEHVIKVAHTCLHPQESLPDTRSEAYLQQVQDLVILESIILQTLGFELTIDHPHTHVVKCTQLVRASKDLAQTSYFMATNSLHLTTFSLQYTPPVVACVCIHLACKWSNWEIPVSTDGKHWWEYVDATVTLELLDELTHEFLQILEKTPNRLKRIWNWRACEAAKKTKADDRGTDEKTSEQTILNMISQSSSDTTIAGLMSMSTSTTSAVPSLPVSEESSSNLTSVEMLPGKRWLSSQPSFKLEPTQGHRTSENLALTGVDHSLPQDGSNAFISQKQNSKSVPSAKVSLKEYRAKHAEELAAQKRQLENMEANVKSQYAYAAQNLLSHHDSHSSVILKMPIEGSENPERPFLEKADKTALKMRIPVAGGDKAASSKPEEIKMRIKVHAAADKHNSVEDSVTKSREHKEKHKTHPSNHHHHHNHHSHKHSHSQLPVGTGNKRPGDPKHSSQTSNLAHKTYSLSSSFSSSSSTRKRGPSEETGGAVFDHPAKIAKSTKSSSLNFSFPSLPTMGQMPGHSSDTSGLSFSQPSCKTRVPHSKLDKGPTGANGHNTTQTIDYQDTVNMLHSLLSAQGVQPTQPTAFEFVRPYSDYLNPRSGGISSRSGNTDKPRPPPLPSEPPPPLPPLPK
JAK3, sequence (P52333 whole entry): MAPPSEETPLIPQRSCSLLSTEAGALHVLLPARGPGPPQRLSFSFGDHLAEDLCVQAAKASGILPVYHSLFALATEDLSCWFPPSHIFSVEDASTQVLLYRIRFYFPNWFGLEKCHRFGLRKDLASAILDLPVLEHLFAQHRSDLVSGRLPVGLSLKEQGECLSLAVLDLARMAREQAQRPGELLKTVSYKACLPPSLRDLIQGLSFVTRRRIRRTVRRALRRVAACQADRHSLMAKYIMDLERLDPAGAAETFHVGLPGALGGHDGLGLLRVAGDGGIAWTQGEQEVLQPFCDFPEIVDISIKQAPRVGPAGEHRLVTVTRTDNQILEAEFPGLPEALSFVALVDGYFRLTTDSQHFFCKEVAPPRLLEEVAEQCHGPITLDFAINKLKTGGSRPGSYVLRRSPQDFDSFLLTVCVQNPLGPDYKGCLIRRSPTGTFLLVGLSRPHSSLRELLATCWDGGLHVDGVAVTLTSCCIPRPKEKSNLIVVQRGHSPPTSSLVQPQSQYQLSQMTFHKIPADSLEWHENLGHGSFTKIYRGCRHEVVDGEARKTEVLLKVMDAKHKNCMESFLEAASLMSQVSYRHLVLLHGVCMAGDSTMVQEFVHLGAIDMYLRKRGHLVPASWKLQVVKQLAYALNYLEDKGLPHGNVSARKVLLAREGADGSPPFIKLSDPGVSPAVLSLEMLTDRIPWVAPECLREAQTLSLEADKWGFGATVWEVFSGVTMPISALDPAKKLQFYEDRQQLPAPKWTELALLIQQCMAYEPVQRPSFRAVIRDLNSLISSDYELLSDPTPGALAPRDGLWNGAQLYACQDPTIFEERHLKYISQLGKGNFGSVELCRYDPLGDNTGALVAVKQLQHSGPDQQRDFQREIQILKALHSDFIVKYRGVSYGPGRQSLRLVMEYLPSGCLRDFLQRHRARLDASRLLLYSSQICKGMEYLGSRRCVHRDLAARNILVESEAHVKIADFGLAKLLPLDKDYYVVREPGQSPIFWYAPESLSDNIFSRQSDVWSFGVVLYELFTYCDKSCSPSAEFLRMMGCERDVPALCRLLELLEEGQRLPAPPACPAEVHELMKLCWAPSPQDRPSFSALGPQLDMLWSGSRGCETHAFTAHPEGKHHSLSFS
JAK2, sequence (O60674 whole entry): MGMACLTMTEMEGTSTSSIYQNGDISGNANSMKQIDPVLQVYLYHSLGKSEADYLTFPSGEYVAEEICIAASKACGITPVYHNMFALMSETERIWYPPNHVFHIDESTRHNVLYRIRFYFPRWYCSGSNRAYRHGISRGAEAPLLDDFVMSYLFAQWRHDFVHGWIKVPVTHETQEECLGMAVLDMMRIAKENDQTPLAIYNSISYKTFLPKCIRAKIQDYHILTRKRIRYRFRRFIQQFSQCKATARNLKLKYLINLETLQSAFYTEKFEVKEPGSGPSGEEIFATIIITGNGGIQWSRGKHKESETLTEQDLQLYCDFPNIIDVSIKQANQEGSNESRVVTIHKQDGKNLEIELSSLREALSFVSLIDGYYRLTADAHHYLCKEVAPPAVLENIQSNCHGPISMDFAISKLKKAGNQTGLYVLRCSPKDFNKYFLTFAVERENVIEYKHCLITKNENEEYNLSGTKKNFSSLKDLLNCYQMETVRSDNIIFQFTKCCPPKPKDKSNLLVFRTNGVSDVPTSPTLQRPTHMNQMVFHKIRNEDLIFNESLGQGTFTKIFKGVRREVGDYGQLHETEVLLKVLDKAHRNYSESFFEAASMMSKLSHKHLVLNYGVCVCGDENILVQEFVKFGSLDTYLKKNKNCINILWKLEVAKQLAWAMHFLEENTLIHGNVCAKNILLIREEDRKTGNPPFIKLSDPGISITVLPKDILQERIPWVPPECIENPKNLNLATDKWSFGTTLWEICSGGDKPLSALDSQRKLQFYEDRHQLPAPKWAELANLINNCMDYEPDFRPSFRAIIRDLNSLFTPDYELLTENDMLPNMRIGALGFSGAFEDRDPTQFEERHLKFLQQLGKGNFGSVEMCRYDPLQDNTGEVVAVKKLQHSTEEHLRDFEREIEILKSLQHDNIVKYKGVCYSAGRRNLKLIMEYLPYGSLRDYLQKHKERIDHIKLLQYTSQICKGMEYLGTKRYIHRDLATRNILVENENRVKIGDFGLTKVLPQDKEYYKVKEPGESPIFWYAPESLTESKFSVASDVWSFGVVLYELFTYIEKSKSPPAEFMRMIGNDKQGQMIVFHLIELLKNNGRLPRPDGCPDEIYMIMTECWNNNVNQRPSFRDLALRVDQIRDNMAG
CDK7, sequence (P50613 whole entry): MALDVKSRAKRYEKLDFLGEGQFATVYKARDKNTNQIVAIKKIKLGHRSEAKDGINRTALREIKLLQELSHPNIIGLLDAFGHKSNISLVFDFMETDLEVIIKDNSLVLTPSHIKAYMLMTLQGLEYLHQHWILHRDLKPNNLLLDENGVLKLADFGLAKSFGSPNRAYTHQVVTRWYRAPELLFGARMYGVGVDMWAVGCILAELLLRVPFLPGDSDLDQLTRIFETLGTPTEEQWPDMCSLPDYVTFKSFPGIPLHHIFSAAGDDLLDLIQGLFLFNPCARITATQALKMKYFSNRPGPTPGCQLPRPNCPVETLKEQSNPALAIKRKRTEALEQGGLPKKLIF
CDK7, sequence (P51946 whole entry partner): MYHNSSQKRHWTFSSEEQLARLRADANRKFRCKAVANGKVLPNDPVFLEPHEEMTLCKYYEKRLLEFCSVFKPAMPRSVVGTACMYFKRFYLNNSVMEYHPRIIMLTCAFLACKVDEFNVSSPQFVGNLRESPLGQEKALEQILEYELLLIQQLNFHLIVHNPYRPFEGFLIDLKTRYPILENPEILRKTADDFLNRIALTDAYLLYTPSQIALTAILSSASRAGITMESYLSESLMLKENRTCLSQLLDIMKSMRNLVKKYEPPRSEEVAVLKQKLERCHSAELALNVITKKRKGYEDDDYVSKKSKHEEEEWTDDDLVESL
CDK7, sequence (P51948 whole entry partner): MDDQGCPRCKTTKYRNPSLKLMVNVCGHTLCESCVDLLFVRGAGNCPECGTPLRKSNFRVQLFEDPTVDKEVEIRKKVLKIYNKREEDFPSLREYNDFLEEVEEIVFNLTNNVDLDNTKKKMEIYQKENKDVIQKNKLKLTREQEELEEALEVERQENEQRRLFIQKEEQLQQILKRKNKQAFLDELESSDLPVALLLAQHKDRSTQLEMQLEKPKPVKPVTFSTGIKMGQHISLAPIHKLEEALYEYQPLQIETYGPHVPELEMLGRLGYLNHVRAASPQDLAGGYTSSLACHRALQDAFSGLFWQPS
ITK, sequence (Q08881 whole entry): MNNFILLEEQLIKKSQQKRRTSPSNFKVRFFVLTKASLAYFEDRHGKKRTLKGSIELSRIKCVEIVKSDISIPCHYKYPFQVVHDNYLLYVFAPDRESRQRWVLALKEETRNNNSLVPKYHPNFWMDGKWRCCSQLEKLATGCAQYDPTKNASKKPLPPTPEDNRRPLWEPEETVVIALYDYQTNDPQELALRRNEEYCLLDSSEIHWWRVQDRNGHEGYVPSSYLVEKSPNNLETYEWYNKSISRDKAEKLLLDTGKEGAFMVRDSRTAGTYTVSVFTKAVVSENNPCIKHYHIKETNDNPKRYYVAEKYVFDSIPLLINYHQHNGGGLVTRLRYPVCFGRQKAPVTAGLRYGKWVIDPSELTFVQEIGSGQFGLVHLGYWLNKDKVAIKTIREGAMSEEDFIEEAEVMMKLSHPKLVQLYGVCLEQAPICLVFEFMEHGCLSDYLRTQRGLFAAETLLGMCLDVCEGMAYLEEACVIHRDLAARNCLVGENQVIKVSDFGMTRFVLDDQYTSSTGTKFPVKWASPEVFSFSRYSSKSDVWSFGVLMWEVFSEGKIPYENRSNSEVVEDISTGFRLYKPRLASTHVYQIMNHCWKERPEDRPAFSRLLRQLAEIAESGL

Clc1cnc2nc1NCCCCCNCc1cccc(c1)N2 [Compound 8, 1^5-chloro-2,5,11-triaza-1(2,4)-pyrimidina-3(1,3)-benzenacyclodecaphane]
IC50 (CDK9; 10 concentrations from 10 µM, three-fold dilutions): < 0.1 µM | inhibition at 0.01 µM (CDK9; selectivity panel Table 3, read-out: Inhibition rate CDK9): > 50% | inhibition at 0.01 µM (CDK9; read-out: Inhibition rate on CDK9 kinase activity): > 50% | inhibition at 0.01 µM (JAK1): < 25% | inhibition at 0.01 µM (ITK): < 25% | inhibition at 0.01 µM (TYK2): < 25% | inhibition at 0.01 µM (LRRK2): < 25% | inhibition at 0.01 µM (JAK2): 25 to 49% | inhibition at 0.01 µM (RET): < 25% | inhibition at 0.01 µM (JAK3): < 25% | inhibition at 0.01 µM (CDK7): < 25% | IC50 (A375): < 0.25 µM | IC50 (Mia-Paca-2): < 0.25 µM | IC50 (MV-4-11): < 0.25 µM | IC50 (HCC1187): 0.25 to 1 µM
